Assay results published in US20260226031A1, “NOVEL COMPOUNDS” (NRG THERAPEUTICS LTD., priority 2023, published 2026).

What was measured:
mPTP [1] = experiment: mPTP activity (Ca2+ retention) assay in isolated rat brain mitochondria; type: biochemical; conditions: isolated rat brain mitochondria; Fluo5N fluorescence at 10 min after Ca2+ (75 μM) bolus
Procedure: MPTP activity was measured in brain mitochondria freshly isolated from female Sprague Dawley (250 to 300 gram) rats. Anaesthetised rats were perfused in-situ with ~40 ml cold Dulbecco's Phosphate Buffered Saline (DPBS), then brains dissected and transferred into 30 ml Isolation Buffer (225 mM mannitol, 75 mM sucrose, 1 mM EGTA, adjusted to pH 7.4 with 1M NaOH). The brain was minced using tweezers and a scalpel into ~5 mm pieces then transferred into a 50 ml Potterton Dounce homogenization tube on ice containing 10 ml ice-cold isolation buffer (as above with addition of Complete Protease inhibitor; 1 tablet per 50 ml buffer). Homogenisation was carried out using a Teflon® pestle at 1800 rpm. The slurry was centrifuged at 2000 g for 10 min at 4° C., then the supernatant centrifuged at 12,000 g for 9 min. The pellet was resuspended with a dounce homogeniser in isolation buffer as above but with the addition of 0.02% digitonin, centrifuged at 12,000 g for 11 min and finally resuspended in 5 ml modified isolation buffer (as above but with EGTA reduced to 0.1 mM).
Test compounds were prepared in 384 well polypropylene assay plates as described above for the liver mitochondria assay. A stock mitochondria/Fluo5N assay solution was prepared in 5.6 ml assay buffer (120 mM mannitol, 40 mM MOPS, 5 mM KH2PO4, 60 mM KCl, 10 mM pyruvate, 2 mM malate, 2 mM MgCl2, 20 μM ADP, 1.26 μM oligomycin A, adjusted to pH 7.4) supplemented with Fluo5N pentapotassium salt (2 μM) and 1 ml mitochondria suspension, then transferred (15 μl) into the assay plate containing test compounds and incubated for 10 min at RT. Assay plates were then transferred to a FLIPR Tetra plate reader (Molecular Devices). Dye fluorescence was then measured every 3 sec for a total of 10 min.

mPTP [2] = experiment: mPTP activity (Ca2+ retention) assay in isolated rat liver mitochondria; type: biochemical; conditions: for mPTP Rat liver pIC50*: isolated rat liver mitochondria, Fluo5N fluorescence at 10 min after CaCl2 (75 μM) bolus, DMSO 0%, 5 μM cyclosporin A 100% inhibition
From the text: Pharmacological inhibition or modulation of the mPTP can be measured in well characterised ‘Ca^2+ retention’ assays performed in isolated mitochondria. In vitro, isolated mitochondria rapidly sequester exogenous Ca^2+ until the intramitochondrial Ca^2+ concentration reaches the threshold for mPTP activation. Once the pore is activated, mitochondrial integrity is compromised and the stored Ca^2+ is released. The distribution of Ca^2+ between extra- and intra-mitochondrial compartments can be measured in real time with the use of membrane-impermeant Ca^2+ sensitive fluorescent dyes. Depending on the configuration of the assay, inhibition or modulation of the mPTP either delays the opening of the pore or increases the concentration of Ca^2+ required to induce mPTP opening.
MPTP activity was measured in mitochondria freshly isolated from female Sprague Dawley (250 to 300 gram) rat livers using the following method. Cervical dislocation was performed on the rat. The liver was then perfused in-situ with ~40 ml cold Dulbecco's Phosphate Buffered Saline (DPBS) prior to dissection and transferred into 30 ml Isolation Buffer (250 mM Sucrose, 10 mM KCl, 1 mM EGTA, 1 mM EDTA, 25 mM HEPES, adjusted to pH 7.5 with 1M NaOH). Each lobe of the liver was then removed from the buffer, minced using tweezers and a scalpel into ~5 mm pieces then transferred into a 50 ml Potterton dounce homogenization tube on ice containing 30 ml ice-cold centrifugation buffer (300 mM Trehalose, 25 mM HEPES, 1 mM EGTA, 1 mM EDTA, 10 mM KCl, adjusted to pH 7.5 with 1M NaOH and supplemented with 0.1% bovine serum albumin (BSA) and complete protease inhibitor cocktail (one tablet of inhibitor per 50 mls of buffer). Homogenisation was carried out using a Teflon® pestle at 1800 rpm. The slurry was centrifuged at 800 g for 10 min at 4° C., then the supernatant centrifuged at 10,000 g for 10 min. The pellet was washed once with FLIPR assay buffer (75 mM Mannitol, 25 mM Sucrose, 5 mM Potassium Phosphate Monobasic, 20 mM Tris base, 100 mM KCl, 0.1% BSA adjusted to pH 7.4 with 5M HCl) centrifuged again, then resuspended in FLIPR assay buffer to a concentration of 8.8 mg/ml protein.
Tested compounds (10 mM stock in DMSO) were serially diluted in DMSO in half log steps to generate 10 test concentrations (final concentrations in assay 30 μM to 1 nM). An intermediate dilution of 5 μl DMSO samples into 247 μl FLIPR assay buffer was carried out prior to transfer of 5 μl into duplicate wells of a 384 well polypropylene assay plate. Control wells were 0.5% (v/v) DMSO and 5 μM cyclosporin A.
A stock mitochondria/Fluo5N assay solution was prepared in 5.6 ml FLIPR assay buffer (at RT) supplemented with succinate disodium salt (10 mM), rotenone (1 μM), Fluo5N pentapotassium salt (2 μM) and 1 ml mitochondria suspension, then transferred (15 μl) into the assay plate containing test compounds and incubated for 10 min at RT. Assay plates were processed for fluorescence detection on either a FLIPR Tetra (Molecular Devices) or CLARIOstar (BMG) plate reader. For kinetic fluorescence detection on the FLIPR, dye fluorescence was measured every 3 sec for a total of 10 min. After 12 sec, a 2.5 μl bolus of CaCl2 (75 μM) was added from a source plate containing 675 μM CaCl2 in FLIPR assay buffer. Alternatively, the 2.5 μl addition of CaCl2 was performed using a Viaflow 384, plates were incubated at RT for 10 min, and dye fluorescence measured after 10 min on the CLARIOstar plate reader. pIC50 values for tested compounds were calculated using the fluorescence value collected at the 10 min timepoint on either plate reader, with % inhibition calculated using the DMSO control and cyclosporin A values as 0 and 100% respectively.

| SMILES | mPTP Rat brain pIC50 (mPTP [1]) | mPTP Rat liver pIC50* (mPTP [2]) | activity in the rat liver mitochondria assay (ranking in words) (mPTP [2]; among tested Example compounds) |
| --- | --- | --- | --- |
| O=C(c1cc(O)no1)N1CC(c2cccc(F)c2)C2(CCC2)C1 (single isomer, unassigned) [Example 38a, (8-(3-fluorophenyl)-6-azaspiro[3.4]octan-6-yl)(3-hydroxyisoxazol-5-yl)methanone] | 7.34 | 6.41 |  |
| O=C(c1cncc(=O)[nH]1)N1CC(c2cccc(F)c2F)C2(CCC2)C1 (single isomer, unassigned) [Example 43b, 6-(8-(2,3-difluorophenyl)-6-azaspiro[3.4]octane-6-carbonyl)pyrazin-2(1H)-one] | 5.69 | 4.94 |  |
| O=C(c1cc(O)no1)N1CC(c2cccc(F)c2F)C2(CCC2)C1 (single isomer, unassigned) [Example 39b, (8-(2,3-difluorophenyl)-6-azaspiro[3.4]octan-6-yl)(3-hydroxyisoxazol-5-yl)methanone] | <4.52 | <4.52 |  |
| CCC1CN(C(=O)c2cncc(=O)[nH]2)CC1c1ccccc1 (single isomer, unassigned) [Example 15d, 6-(3-ethyl-4-phenylpyrrolidine-1-carbonyl)pyrazin-2(1H)-one] | <4.52 | <4.52 |  |
| O=C(c1cncc(O)n1)N1CC(c2ccccc2)C2(CCC2)C1 (single isomer, unassigned) [Example 6b, (6-hydroxypyrazin-2-yl)(8-phenyl-6-azaspiro[3.4]octan-6-yl)methanone] | <4.52 | 4.59 |  |
| O=C(c1cncc(=O)[nH]1)N1CC(c2cccc(F)c2F)C2(CCC2)C1 (single isomer, unassigned) [Example 43a, 6-(8-(2,3-difluorophenyl)-6-azaspiro[3.4]octane-6-carbonyl)pyrazin-2(1H)-one] | 7.43 | 6.56 |  |
| O=C(c1cncc(O)c1)N1CC(c2ccccc2)C2(CCC2)C1 (centres unmarked) [Example 1a, (5-hydroxypyridin-3-yl)(8-phenyl-6-azaspiro[3.4]octan-6-yl)methanone] | 6.73 | 5.68 |  |
| O=C(c1nccc(=O)[nH]1)N1CC(c2ccccc2)C2(CC(F)C2)C1 (single isomer, unassigned) [Example 25d, 2-(2-fluoro-8-phenyl-6-azaspiro[3.4]octane-6-carbonyl)pyrimidin-4(3H)-one] | <4.52 | <4.52 |  |
| O=C(c1cc(O)no1)N1CC(c2ccccc2)C2(CCC2)C1 (single isomer, unassigned) [Example 23b, (3-hydroxyisoxazol-5-yl)(8-phenyl-6-azaspiro[3.4]octan-6-yl)methanone] | <4.52 | <4.52 |  |
| O=C(c1cccc(=O)[nH]1)N1CC(c2ccccc2)C2(CCC2)C1 (single isomer, unassigned) [Example 26a, 6-(8-phenyl-6-azaspiro[3.4]octane-6-carbonyl)pyridin-2(1H)-one] | 4.96 | 4.88 |  |
| O=C(c1noc(=O)[nH]1)N1CC(c2ccccc2)C2(CCC2)C1 (single isomer, unassigned) [Example 34b, 3-(8-phenyl-6-azaspiro[3.4]octane-6-carbonyl)-1,2,4-oxadiazol-5(4H)-one] | <4.52 | <4.52 |  |
| O=C(c1cncc(O)c1)N1CC(c2ccccc2)C2(CCC2)C1 (single isomer, unassigned) [Example 1b, (5-hydroxypyridin-3-yl)(8-phenyl-6-azaspiro[3.4]octan-6-yl)methanone] | 6.94 | 6.01 |  |
| O=C(c1cc(O)no1)N1CC(c2ccccc2)C2(CCC2)C1 (single isomer, unassigned) [Example 23a, (3-hydroxyisoxazol-5-yl)(8-phenyl-6-azaspiro[3.4]octan-6-yl)methanone] | 7.22 | 6.17 |  |
| O=C(c1cc(O)no1)N1CC(c2cccc(F)c2F)C2(CCC2)C1 (single isomer, unassigned) [Example 39a, (8-(2,3-difluorophenyl)-6-azaspiro[3.4]octan-6-yl)(3-hydroxyisoxazol-5-yl)methanone] | 7.41 | 6.47 |  |

Now from value to compound, other results behind:

| mPTP Rat brain pIC50 (mPTP [1]) | mPTP Rat liver pIC50* (mPTP [2]) | SMILES | activity in the rat liver mitochondria assay (ranking in words) (mPTP [2]; among tested Example compounds) |
| --- | --- | --- | --- |
| 7.5 | 6.82 | O=C(c1cncc(=O)[nH]1)N1CC(c2ccc(F)cc2)C2(CCC2)C1 (single isomer, unassigned) [Example 35a, 6-(8-(4-fluorophenyl)-6-azaspiro[3.4]octane-6-carbonyl)pyrazin-2(1H)-one] | highest activity |
| 6.39 | 5.58 | O=C(c1cncc(=O)[nH]1)N1CC(c2ccc(Cl)cc2)C2(CCC2)C1 (single isomer, unassigned) [Example 16a, 6-[8-(4-Chlorophenyl)-6-azaspiro[3.4]octane-6-carbonyl]-1H-pyrazin-2-one] |  |
| 5.79 | 5.57 | O=C(c1cncc(=O)[nH]1)N1CC(c2ccc(F)cc2)C2(CCC2)C1 (single isomer, unassigned) [Example 35b, 6-(8-(4-fluorophenyl)-6-azaspiro[3.4]octane-6-carbonyl)pyrazin-2(1H)-one] |  |
| 7.22 | 6.17 | O=C(c1cncc(=O)[nH]1)N1CC(c2cccc(Cl)c2)C2(CCC2)C1 (single isomer, unassigned) [Example 31a, 6-(8-(3-chlorophenyl)-6-azaspiro[3.4]octane-6-carbonyl)pyrazin-2(1H)-one] |  |
| 5.69 | 5.17 | COc1ccc(C2CN(C(=O)c3cncc(=O)[nH]3)CC23CCC3)cc1 (single isomer, unassigned) [Example 28a, 6-(8-(4-methoxyphenyl)-6-azaspiro[3.4]octane-6-carbonyl)pyrazin-2(1H)-one] |  |
| <4.52 | 4.58 | O=C(c1cncc(=O)[nH]1)N1CC(c2cccc(Cl)c2)C2(CCC2)C1 (single isomer, unassigned) [Example 31b, 6-(8-(3-chlorophenyl)-6-azaspiro[3.4]octane-6-carbonyl)pyrazin-2(1H)-one] |  |
